In patent publication US20030166542A1, “Systemic immune response induced by mucosal administration of lipid-tailed polypeptides without adjuvant” (INSTITUT PASTEUR, priority 1999, published 2003):
*: point of attachment. Palmitoyl = CCCCCCCCCCCCCCCC(=O)*

Key:
[1] = system: spleen and inguinal lymph node cells; experiment: Lymphocyte proliferative assay ((3H)TdR) on spleen and inguinal lymph node cells of immunized mice; type: cell-based
Method: FIG. 3: Systemic cellular immune responses are electited by presentation of lipid-tailed polypeptides to the nasal and sub-lingual mucosal surfaces. Groups of five C3H/HeJ mice were administrated with LSA3-NRII lipid-tailed (black bars) or non-lipdated polypeptide (hatched bars) either a) intranasally, b) sub-lingually, or c) subcutaneously. Two weeks after two administrations, cell suspensions from individual spleens were assayed for in vitro proliferation to the recall polypeptide. Results are expressed as Δ cpm. The background cpm, in unstimulated cells were 1548 fro intranasal, 2356 for sub-lingual and 1965 for subcutaneous routs, Bars represent the mean Δ cpm±SD in each group. The data were similar and are representative of three separate experiments.

C3H/HeJ mice = experiment: Isotype analysis of polypeptide-specific serum antibodies (ELISA); type: in vivo
[2] = system: P. falciparum sporozoites, liver schizonts, infected RBC; experiment: Immunofluorescent Ab assay (IFAT) of sera from immunized mice against native parasite; type: in vivo
Method: FIG. 2: Mucosal immunization elicits parasite-specific antibody responses. Sera were obtained from C3H/HeJ mice at 2weeks post-immunization by either nasal or sub-lingual route and assayed fro recognition of (a) P. falciparum sporozoites and (B) hepatic schizonts in an IFI assay as described in Material and Methods. The data are representative of three independent experiments.
The reactivity of the sera against native proteins from various stages of the parasite were analyzed by IFAT using either (i) P. faciparum NF54 strain sporozoites (a gift of W. Eling), or (ii) sections from liver biopsies containing day 5 P. falciparum liver schizonts, or (iii) day 6 ½ P. falciparum liver schizonts obtained from a Chimpanzee. IFAT-labeled anti-human IgG, -A, -M (Diagnostic Pasteur France) or anti-mouse (Cappel. Wester Chester. Pa.) diluted {fraction (1/ 200)} were employed as second Abs.

[3] = system: T lymphocytes from ganglia sub-mandibulaires; type: cell-based, BALB/c mice

## Ac-LEESQVNDDIFNSLVKSVQQEQQHNVK(Pam)NH2 (Ac-LEESQVNDDIFNSLVKSVQQEQQHNVK(Palmitoyl)-NH2; SMILES CCCCCCCCCCCCCCCC(=O)NCCCC[C@H](NC(=O)[C@@H](NC(=O)[C@H](CC(N)=O)NC(=O)[C@H](Cc1c[nH]cn1)NC(=O)[C@H](CCC(N)=O)NC(=O)[C@H](CCC(N)=O)NC(=O)[C@H](CCC(=O)O)NC(=O)[C@H](CCC(N)=O)NC(=O)[C@H](CCC(N)=O)NC(=O)[C@@H](NC(=O)[C@H](CO)NC(=O)[C@H](CCCCN)NC(=O)[C@@H](NC(=O)[C@H](CC(C)C)NC(=O)[C@H](CO)NC(=O)[C@H](CC(N)=O)NC(=O)[C@H](Cc1ccccc1)NC(=O)[C@@H](NC(=O)[C@H](CC(=O)O)NC(=O)[C@H](CC(=O)O)NC(=O)[C@H](CC(N)=O)NC(=O)[C@@H](NC(=O)[C@H](CCC(N)=O)NC(=O)[C@H](CO)NC(=O)[C@H](CCC(=O)O)NC(=O)[C@H](CCC(=O)O)NC(=O)[C@H](CC(C)C)NC(C)=O)C(C)C)[C@@H](C)CC)C(C)C)C(C)C)C(C)C)C(N)=O) [LSA3-NRII lipid-tailed polypeptide, palmitoyl lipid-tailed polypeptide derived from P. falciparum LSA-3]
[1]; Ag specificity
  proliferative responses against irrelevant polypeptide (LSA1-J): lack of responses
[1]; S.L.
  maximal delta cpm, inguinal lymph nodes: 16189 cpm
[1]; S.L. or I.N. application, no mucosal adjuvant, C3H/HeJ
  proliferative responses in spleen cells to recall polypeptide: strong proliferative responses
[1]; after mucosal administration, anti-CD4 / anti-CD8 antibodies
  phenotype of lymphoproliferative responses (antibody blocking): abrogated by antibodies against CD4 but not by anti- CD8 antibodies
[1]; same dose, P<0.05
  proliferative responses, mucosally versus subcutaneously immunized animals: at higher levels compared to subcutaneously immunized animals
C3H/HeJ mice; mucosal administration (I.N., S.L.)
  isotype profile of serum antibody response: preferential IgG2a serum antibody response
C3H/HeJ mice; subcutaneous route
  isotype profile of serum antibody response: dominant IgG1 isotype response
[2]; different steps of intra-erythrocytic maturation
  reactivity of induced Abs with infected RBC's by IFAT: did not react
[2]; sporozoite and liver stages, sera of mucosally immunized BALB/c and C3H/HeJ
  reactivity of induced Abs with intact parasite by IFAT: react with the intact parasite

## Concanavaline A [CON A, reference compound]
[3]; positive control
  immune response (CFSE shift of fluorescence): maximum immune response

## Nh2-K(NεPam)GRQYIKANSKFIGITERGRILKEPVHGV-COOH [H-K(PAM)TT-pol 476-484]
[3]
  shift of fluorescence (CFSE): as intense as that provided by positive CON A control
